Broadly, the pIC50 is −log10 of the IC50, conventionally taken in molar units.

pEC50, pIC50: −log10 of the molar value. “Also recorded” adds a separate entry of the source. Read-outs that look alike come from different tables or passages of the source.

The values below come from US20250186451A1, “METHODS OF TREATING CANCER WITH IAP ANTAGONIST COMPOUNDS AND COMBINATION THERAPIES” (Otsuka Pharmaceutical Co., Ltd., priority 2022, published 2025).

One data set relates to MOLT4 cells. The experiment in a line: Flow cytometry: annexin V/DAPI apoptosis and bead-based absolute cell count, MOLT4. The following applies: MOLT4, single agent, 5 days. A general note: Flow cytometry measures light scatter and fluorescence of single cells or particles in a stream.
The subject of data set [1] is LOUCY cells. The data set is described as follows: Flow cytometry: annexin V/DAPI apoptosis and bead-based absolute cell count, LOUCY. The settings on record: for pIC50: Homo sapiens. More on the design: species or system human. As for the experimental part:
(§1) Combination index and IC50 were determined using Calcusyn (BIOSOFT, Cambridge, UK).

In data set [2] the test system is LOUCY cells. The data set is described as follows: Western blot analysis in LOUCY cells. In kind it is cell-based, human. The settings on record: combination = Compound I + Compound II. The source says:
Membranes were probed with specific antibodies.

The next data set deals with PF382 cells. The experiment in a line: Flow cytometry: annexin V/DAPI apoptosis and bead-based absolute cell count, PF382. On the set-up: species or system human.
Another data set relates to ALL-SIL cells. The experiment in a line: Flow cytometry: annexin V/DAPI apoptosis and bead-based absolute cell count, ALL-SIL. On the set-up: species or system human. The protocol: as §1
A further data set has as its system CCRF-CEM cells. The data set is described as follows: Flow cytometry: annexin V/DAPI apoptosis and bead-based absolute cell count, CCRF-CEM. On the set-up: species or system human.
For another data set, the system named is MOLT16 cell line. The experiment in a line: Flow cytometry: annexin V/DAPI apoptosis and bead-based absolute cell count, MOLT16. More on the design: species or system human. The following applies: MOLT16, single agent, 5 days.
For another data set, the system named is SUPT11 cells. The data set is described as follows: Flow cytometry: annexin V/DAPI apoptosis and bead-based absolute cell count, SUPT11.
A further data set has as its system JURKAT cells. The data set is described as follows: Flow cytometry: annexin V/DAPI apoptosis and bead-based absolute cell count, JURKAT. The following applies: single agent, 5 days.
Data set [3] has as its system PDX-derived cells (CD45+ bulk).
The test system of data set [4] is leukemia initiating cells (LICs, CD45+, CD7+, CD19-, CD34+).

Experimental for CCRF-CEM cells: (§2) Cells were re-suspended in PBS containing CountBright beads (Invitrogen #C36950) to allow for measurement of the absolute cell number. Half-maximal inhibitory concentrations (IC50) was calculated using CalcuSyn software (BIOSOFT, Cambridge, UK).
(§3) Combination index (CI) and IC50 were determined using Calcusyn (BIOSOFT, Cambridge, UK).
Experimental for JURKAT cells: as §2
Experimental for MOLT16 cell line: as §2, §3
Experimental for MOLT4 cells: as §2
Experimental for PF382 cells: as §2, §3
Experimental for SUPT11 cells: as §2, §3

For the molecule `C[C@@H]1CN(CC(=O)N2CC(C)(C)c3nc(CO)c(Cc4ccc(F)cc4)cc32)[C@@H](CN2CCOC[C@H]2C)CN1` [Compound I, 1-(6-(4-fluorobenzyl)-5-(hydroxymethyl)-3,3-dimethyl-2,3-dihydro-1H-pyrrolo [3,2-b]pyridin-1-yl)-2-((2R,5R)-5-methyl-2-(((R)-3-methylmorpholino)methyl)piperazin-1-yl)ethan-1-one], the “sensitivity to Compound I” value with MOLT4 cells is “least sensitive”; in the data set on PF382 cells (PF382, single agent, 5 days), “least sensitive”; in the data set with ALL-SIL cells (ALL-SIL, single agent, 5 days) it was “moderate sensitivity”; with CCRF-CEM cells (CCRF-CEM, single agent, 5 days), “moderate sensitivity”; with MOLT16 cell line, “least sensitive”; with JURKAT cells it was “least sensitive”. In addition, the pIC50 is 6.72 in the data set on LOUCY cells [1] (120 h, Table 1, Loucy, Compound I single agent, 5 days); 6.72 in the data set with LOUCY cells [1] (Table 4, LOUCY cells, Combination = Compound II:Compound I 1:10); 4.93 with ALL-SIL cells (Homo sapiens, 120 h); 4.75 with CCRF-CEM cells (Homo sapiens, CCRF-CEM, 120 h); 6.51 in the data set with SUPT11 cells (Homo sapiens, SUPT11, 120 h, Table 1, SUPT11, Compound I single agent, 5 days); 7.93 with SUPT11 cells (Homo sapiens, SUPT11, Table 2, SUPT11 cells, Combination = DEX + Compound I 1:1). The pIC50 with SUPT11 cells (Table 1, SUPT11, Compound I single agent, 5 days) is 6.51. In the data set on LOUCY cells [2], the “PARP expression (Western blot)” value was “decreased expression”. Besides, in the data set on LOUCY cells [2], the “cIAP2 expression (Western blot)” value is given as “decreased expression; also recorded: decrease”. Moreover, in the data set with LOUCY cells [2], the “cleaved caspase 7 (Western blot)” value was “increase”. Moreover, the apoptosis induction result in the data set on PF382 cells (PF382, single agents or combination Compound I:DEX 1:1) is recorded as “no apoptosis induction”.

For `CC1(C)CCC(CN2CCN(c3ccc(C(=O)NS(=O)(=O)c4ccc(NCC5CCOCC5)c([N+](=O)[O-])c4)c(Oc4cnc5[nH]ccc5c4)c3)CC2)=C(c2ccc(Cl)cc2)C1` [Compound II, 2-((1H-pyrrolo[2,3-b]pyridin-5-yl)oxy)-4-(4-((4′-chloro-5,5-dimethyl-3,4,5,6-tetrahydro-[1,1′-biphenyl]-2-yl)methyl)piperazin-1-yl)-N-((3-nitro-4-(((tetrahydro-2H-pyran-4-yl)methyl)amino)phenyl)sulfonyl)benzamide, reference compound], the cell death with LOUCY cells [1] (LOUCY, combination = Compound II:Compound I 1:10) is given as 27+0.9%.

For the molecule `C[C@@H]1C[C@H]2[C@@H]3CCC4=CC(=O)C=C[C@]4(C)[C@@]3(F)[C@@H](O)C[C@]2(C)[C@@]1(O)C(=O)CO` [DEX, dexamethasone, reference compound], the cytotoxic effect in [3] worked out at 58±2%; in [4], 62±2%. Also, the cell death in the data set on CCRF-CEM cells (CCRF-CEM (DEX-resistant), combination = Compound I:DEX 1:1) is listed as 20+3%. Further, the pEC50 is about 5.70 in the data set on SUPT11 cells (Homo sapiens, SUPT11, read-out: ED50, SUPT11 cells, DEX treatment alone) and 5.70 in the data set with SUPT11 cells (Homo sapiens, SUPT11, read-out: ED50, Table 2, SUPT11 cells, Combination = DEX + Compound I 1:1).
